Laboratory results as given in article PMC13039201 (Scientific Reports, 2026).
Read-outs that look alike come from different tables or passages of the source.

What was measured:
[1] = target: Human serum albumin (HA), commercial HA (Homo sapiens, UniProt P02768)
[2] = target: HA captured from plasma (ACLF patients, CTRL) (Homo sapiens, UniProt P02768); type: binding; conditions: ACLF n = 6 vs CTRL n = 6, Student's t-test on KD values
[3] = system: anti-HA antibody; experiment: SPR injection on the bare anti-HA sensor chip without any immobilized HA; type: binding, rabbits
[4] = target: HA; conditions: read-out: KD reported in the literature; cited from earlier work
[5] = target: HA captured from plasma (T2DM-DKD, T2DM+DKD) (Homo sapiens, UniProt P02768); type: binding; conditions: n = 10 each, KD values
Sequence of HA captured from plasma (T2DM-DKD, T2DM+DKD) (P02768 25-609): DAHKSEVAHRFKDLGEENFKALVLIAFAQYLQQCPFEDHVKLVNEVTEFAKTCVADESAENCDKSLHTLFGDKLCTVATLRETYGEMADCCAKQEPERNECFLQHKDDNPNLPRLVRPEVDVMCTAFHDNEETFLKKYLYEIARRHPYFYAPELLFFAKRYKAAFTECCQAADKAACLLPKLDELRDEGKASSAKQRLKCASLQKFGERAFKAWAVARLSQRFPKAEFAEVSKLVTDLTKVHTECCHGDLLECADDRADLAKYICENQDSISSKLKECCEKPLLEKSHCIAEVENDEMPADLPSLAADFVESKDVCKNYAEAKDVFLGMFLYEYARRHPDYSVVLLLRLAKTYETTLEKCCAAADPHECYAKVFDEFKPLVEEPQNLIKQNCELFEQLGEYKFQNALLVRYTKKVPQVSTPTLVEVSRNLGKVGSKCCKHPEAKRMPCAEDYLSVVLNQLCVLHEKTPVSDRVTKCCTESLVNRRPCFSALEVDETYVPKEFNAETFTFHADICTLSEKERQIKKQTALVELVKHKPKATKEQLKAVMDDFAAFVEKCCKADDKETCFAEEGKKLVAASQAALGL

Sequence of HA captured from plasma (ACLF patients, CTRL) (P02768 25-609): as above
Sequence of Human serum albumin (HA), commercial HA (P02768 25-609): as above

Row | Compound | affinity of HA from ACLF patients compared with HA from CTRL subjects [2] | Kd [4] [µM] | other results
1 | C=CC1=C(C)/C(=C/C2=NC(=C\c3[nH]c(/C=C4\NC(=O)C(C)=C4C=C)c(C)c3CCC(=O)O)/C(CCC(=O)O)=C2C)NC1=O [BVD, biliverdin] | no significant differences |  | Kd [1]: 13 ± 3 µM; interactions with the anti-HA antibody [3]: significant interactions
2 | CN(C)c1cccc2c(S(=O)(=O)N[C@@H](Cc3ccccc3)C(=O)O)cccc12 [DPA, dansyl-L-phenylalanine] | no significant differences | 6 | Kd ([1]; commercial HA captured on chip, steady state 1:1 model, 25 °C, validation): 1.7 ± 0.3 µM
3 | CCCCC1C(=O)N(c2ccccc2)N(c2ccccc2)C1=O [PBZ, phenylbutazone] |  | 0.12 to 3.3 | 
4 | COc1ccc2c3c1O[C@H]1C[C@@H](O)C=C[C@@]31CCN(C)C2 [galantamine] |  |  | interaction with HA (negative control) ([1]; 0.370-30.0 µM, 10 µL/min, 60 s): no interaction
5 | teicoplanin | reduced its binding affinity |  | binding capacity of HA in T2DM + DKD patients compared with T2DM-DKD [5]: did not significantly affect
